System: Candida famata regulatory mutants able to overproduce riboflavin
Assay: Sensitivity to copper ions, solid Burkholder medium (Table 12)
Type: cell-based
Design: key: +++: strong growth; ++: weak growth; —: absence of growth
Experimental: The sensitivity of the regulatory mutants of the yeast C. famata which overproduce riboflavin in iron rich medium probably due to defects in genes regulating repression (repression mutants), to different ions of heavy metals was studied. For this, the analyzed strains were streaked on the YPD plates and then were replica-plated on Burkholder synthetic medium containing leucine (40 μg/ml). The C.famata mutants L20105-40-1-11, L20105-40-1-17, L20105-3-2-1, L20105-3-2-8 and L20105-3-2-12 (all contained leu2 marker) accumulated 80–100 μg riboflavin/ml. The mutants #75, 4-48, 2-5 produced much higher amounts of riboflavin (200–250 μg/ml) but were prototrophs for leucine synthesis. Strain #75 was characterized by retarded growth comparing with other mutants. The strains VKM Y-9 (wild type) and L20105 (leu2) were used as the control strains.
Mutants overproducing lower amounts of riboflavin appeared to be more sensitive to CuSO4 (0.15 mM) than that of the strains producing higher amounts of riboflavin (inhibitory concentration 0.5 mM) (Table 12).

O=S(=O)([O-])[O-].[Cu+2] [CuSO4] was tested, and the growth (#2-5, Cu^+2 0.05 mM) was “+++”, the growth (#2-5, Cu^+2 0.1 mM) was “+++” and the growth (#2-5, Cu^+2 0.15 mM) was “+++”. The growth (#2-5, Cu^+2 0.2 mM) was “+++”, the growth (#2-5, Cu^+2 0.25 mM) was “+++” and the growth (#2-5, Cu^+2 0.3 mM) was “++”. For the same compound, the growth (#2-5, Cu^+2 0.35 mM) was “++”, the growth (#2-5, Cu^+2 0.5 mM) was “—” and the growth (#2-5, Cu^+2 0.55 mM) was “—”. The growth (#2-5, Cu^+2 0.6 mM) was “—”, the growth (#2-5, Cu^+2 0.65 mM) was “—” and the growth (#2-5, Cu^+2 0.7 mM) was “—”. For the same compound, the growth (#2-5, Cu^+2 0.75 mM) was “—”, the growth (#2-5, Cu^+2 4 mM) was “++” and the growth (#2-5, Cu^+2 8 mM) was “—”. The growth (#4-48, Cu^+2 0.05 mM) was “+++”, the growth (#4-48, Cu^+2 0.1 mM) was “+++” and the growth (#4-48, Cu^+2 0.15 mM) was “+++”. For the same compound, the growth (#4-48, Cu^+2 0.2 mM) was “+++”, the growth (#4-48, Cu^+2 0.25 mM) was “+++” and the growth (#4-48, Cu^+2 0.3 mM) was “++”. For the same compound, the growth (#4-48, Cu^+2 0.35 mM) was “++”, the growth (#4-48, Cu^+2 0.5 mM) was “—” and the growth (#4-48, Cu^+2 0.55 mM) was “—”. For the same compound, the growth (#4-48, Cu^+2 0.6 mM) was “—”, the growth (#4-48, Cu^+2 0.65 mM) was “—” and the growth (#4-48, Cu^+2 0.7 mM) was “—”. The growth (#4-48, Cu^+2 0.75 mM) was “—”, the growth (#4-48, Cu^+2 4 mM) was “++” and the growth (#4-48, Cu^+2 8 mM) was “—”. The growth (#75, Cu^+2 0.05 mM) was “+++”, the growth (#75, Cu^+2 0.1 mM) was “+++” and the growth (#75, Cu^+2 0.15 mM) was “+++”. For the same compound, the growth (#75, Cu^+2 0.2 mM) was “+++”, the growth (#75, Cu^+2 0.25 mM) was “+++” and the growth (#75, Cu^+2 0.3 mM) was “++”. The growth (#75, Cu^+2 0.35 mM) was “++”, the growth (#75, Cu^+2 0.5 mM) was “—” and the growth (#75, Cu^+2 0.55 mM) was “—”. The growth (#75, Cu^+2 0.6 mM) was “—”, the growth (#75, Cu^+2 0.65 mM) was “—” and the growth (#75, Cu^+2 0.7 mM) was “—”. The growth (#75, Cu^+2 0.75 mM) was “—”, the growth (#75, Cu^+2 4 mM) was “++” and the growth (#75, Cu^+2 8 mM) was “—”. For the same compound, the growth (L20105 (leu2), Cu^+2 0.45 mM) was “++”, the growth (L20105 (leu2), Cu^+2 0.5 mM) was “++” and the growth (L20105 (leu2), Cu^+2 0.55 mM) was “++”. For the same compound, the growth (L20105-3-2-4, Cu^+2 0.15 mM) was “—”, the growth (L20105-3-2-4, Cu^+2 0.2 mM) was “—” and the growth (L20105-3-2-4, Cu^+2 0.25 mM) was “—”. The growth (L20105-3-2-4, Cu^+2 0.35 mM) was “—”, the growth (L20105-3-2-4, Cu^+2 0.45 mM) was “—” and the growth (L20105-3-2-4, Cu^+2 0.5 mM) was “—”. For the same compound, the growth (L20105-3-2-4, Cu^+2 0.55 mM) was “—”, the growth (L20105-3-2-4, Cu^+2 0.6 mM) was “—” and the growth (L20105-3-2-4, Cu^+2 0.65 mM) was “—”. For the same compound, the growth (L20105-3-2-4, Cu^+2 0.7 mM) was “—”, the growth (L20105-3-2-4, Cu^+2 0.75 mM) was “—” and the growth (L20105-3-2-4, Cu^+2 4 mM) was “—”. The growth (L20105-3-2-8, Cu^+2 0.05 mM) was “++”, the growth (L20105-3-2-8, Cu^+2 0.15 mM) was “—” and the growth (L20105-3-2-8, Cu^+2 0.2 mM) was “—”. The growth (L20105-3-2-8, Cu^+2 0.25 mM) was “—”, the growth (L20105-3-2-8, Cu^+2 0.3 mM) was “—” and the growth (L20105-3-2-8, Cu^+2 0.35 mM) was “—”. The growth (L20105-3-2-8, Cu^+2 0.45 mM) was “—”, the growth (L20105-3-2-8, Cu^+2 0.5 mM) was “—” and the growth (L20105-3-2-8, Cu^+2 0.55 mM) was “—”. For the same compound, the growth (L20105-3-2-8, Cu^+2 0.6 mM) was “—”, the growth (L20105-3-2-8, Cu^+2 0.65 mM) was “—” and the growth (L20105-3-2-8, Cu^+2 0.7 mM) was “—”. For the same compound, the growth (L20105-3-2-8, Cu^+2 0.75 mM) was “—”, the growth (L20105-3-2-8, Cu^+2 4 mM) was “—” and the growth (L20105-3-2-8, Cu^+2 8 mM) was “—”. For the same compound, the growth (L20105-3-2-12, Cu^+2 0.05 mM) was “++”, the growth (L20105-3-2-12, Cu^+2 0.15 mM) was “—” and the growth (L20105-3-2-12, Cu^+2 0.2 mM) was “—”. For the same compound, the growth (L20105-3-2-12, Cu^+2 0.25 mM) was “—”, the growth (L20105-3-2-12, Cu^+2 0.3 mM) was “—” and the growth (L20105-3-2-12, Cu^+2 0.35 mM) was “—”. The growth (L20105-3-2-12, Cu^+2 0.45 mM) was “—”, the growth (L20105-3-2-12, Cu^+2 0.5 mM) was “—” and the growth (L20105-3-2-12, Cu^+2 0.55 mM) was “—”. The growth (L20105-3-2-12, Cu^+2 0.6 mM) was “—”, the growth (L20105-3-2-12, Cu^+2 0.65 mM) was “—” and the growth (L20105-3-2-12, Cu^+2 0.7 mM) was “—”. For the same compound, the growth (L20105-3-2-12, Cu^+2 0.75 mM) was “—”, the growth (L20105-3-2-12, Cu^+2 4 mM) was “—” and the growth (L20105-3-2-12, Cu^+2 8 mM) was “—”.

From US7009045B2 (priority 2000, dated 2006)
